Values of other authors as cited in patent US7897615B2 (Chugai Sciyaku Kabushiki Kaisha, priority 2003, dated 2011).

Columns and labels:
[1] = system: human breast cancer cells
CPT-I muscle (M) isoform = conditions: muscle isoform of CPT-I

| IC50 (CPT-I muscle (M) isoform) | Compound | antitumor activity [1] | malonyl-CoA level ([1]; breast carcinoma cells) |
| --- | --- | --- | --- |
|  | CCCCCCCCCCCCCCOc1ccc(C(=O)O)o1 [TOFA, 5-(tetradecyloxy)-2-furoic acid] | does not show any antitumor activity | 60 % of the control |
| 30 nM | CC(C)(COP(=O)(O)OP(=O)(O)OC[C@H]1O[C@@H](n2cnc3c(N)ncnc32)[C@H](O)[C@@H]1OP(=O)(O)O)[C@@H](O)C(=O)NCCC(=O)NCCSC(=O)CC(=O)O [Malonyl-CoA] |  |  |
